From patent US20230278996A1, “YKL-40 INHIBITORS AND THEIR THERAPEUTIC APPLICATIONS” (Molecure S.A., priority 2022, published 2023)
Structures can show the parent of a compound that is named as a salt.

Legend:
YKL-40 [1] = target: T1, YKL-40 (Homo sapiens (Human), UniProt P36222); test: Bio-layer interferometry (BLITz) Kd of biotinylated compounds; assay type: binding; details: symbol preceded by asterisk; biotinylated compound on streptavidin biosensor; read-out: YKL-40:4, Kd
Protocol: BLITz system (Sartorius) that used Bio-layer interferometry technology was applied to assess Kd of biotinylated compounds. […] During dehydration process the 10 mM stock of biotinylated compound in DMSO was diluted in MST buffer to final concentration of 0.5 μM. In addition, protein stock of recombinant YKL40 (un-tagged, purified in-house) was also prepared in MST buffer at two concentrations: 200 μM and 400 μM. The dehydrated biosensor was applied on the BLITz system that was followed by 5-step procedure: 1) initial baseline for 30 s with MST buffer in tube, 2) loading of 4 μl of biotinylated compound on drop, 3) baseline for 30 s with MST buffer in tube, 4) association of 4 μl of protein stock at one concentration or MST buffer (negative control), 5) dissociation with MST buffer in tube. The same multi-step measurement was done twice for each protein stock concentration and once for negative control. Kd was measured by the BLITz software based on global fitting using the negative control as a reference.

[2] = target: YKL-40: heparan sulfate interaction (Homo sapiens (Human), UniProt P36222); test: YKL-40:HS assay, heparan sulfate interference AlphaScreen; assay type: binding; details: competition with biotinylated heparan sulphate (60 nM)
Protocol: In the similar way to establishing YKL-40 chitin binding site competitive AlphaScreen assay (section 3), the YKL-40 AlphaScreen assay using biotinylated 9 kDa heparan sulfate fraction III was established, including the same buffer conditions (50 mM Tris HCl pH 7.4, 150 mM NaCl, 10 mM MgCl2, 0.05% Tween 20, 1 mg/mL BSA 1% DMSO). […] Next, biotinylated heparan sulfate fraction III custom-ordered from Iduron was cross-titrated with histagged YKL-40 using AlphaScreen assay described above.
Positive and negative control wells received just 8 uL of MST buffer containing 2% DMSO without inhibitor in the 2nd step (ii). In addition, negative control received just 8 uL of MST buffer containing 0% DMSO without YKL-40-histag in the 3nd step (iii). Finally, the plate luminescence was excited at 680 nm and the emission read at 520-620 nm using the AlphaScreen module in the The Spark™ 10 M multimode microplate reader (Tecan Trading AG, Männedorf, Switzerland). Inhibition percentage and IC50 values were determined using GraphPad Prism 7.0 software (GraphPad Software, San Diego, Calif., USA).

YKL-40 [3] = target: T1, YKL-40; test: YKL-40:4 assay, competitive chitin binding site AlphaScreen; details: competition with biotinylated compound 4 (20 nM), YKL-40-histag 2.5 nM

T1 sequence (P36222 22-383): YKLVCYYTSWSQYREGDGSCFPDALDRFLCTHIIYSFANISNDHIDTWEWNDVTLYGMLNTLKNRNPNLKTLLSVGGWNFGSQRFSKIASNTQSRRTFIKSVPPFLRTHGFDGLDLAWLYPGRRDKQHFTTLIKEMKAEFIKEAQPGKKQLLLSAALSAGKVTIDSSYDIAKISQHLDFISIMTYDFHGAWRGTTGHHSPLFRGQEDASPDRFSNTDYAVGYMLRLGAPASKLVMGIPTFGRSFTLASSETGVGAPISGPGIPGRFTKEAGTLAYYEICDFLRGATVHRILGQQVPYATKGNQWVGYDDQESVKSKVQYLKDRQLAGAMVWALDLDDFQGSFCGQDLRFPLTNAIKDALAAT
Chain of YKL-40: heparan sulfate interaction (P36222 22-383): as above

Row | SMILES | Kd (YKL-40 [1]) | IC50 [2] | IC50 (YKL-40 [3])
1 | O=C(CCCC[C@@H]1SC[C@@H]2NC(=O)N[C@@H]21)NCCOCCOCCOCCOCCOCCOCCOCCOCCOCCOCCOCCOCCC(=O)NC[C@H]1CN(C2CCN(c3ccccn3)CC2)[C@@H](Cc2ccc(Cl)cc2)CO1 [Example 5, N-(((2S,5S)-5-(4-chlorobenzyl)-4-(1-(pyridin-2-yl)piperidin-4-yl)morpholin-2-yl)methyl)-1-(5-((3aS,4S,6aR)-2-oxohexahydro-1H-thieno[3,4-d]imidazol-4-yl)pentanamido)-3,6,9,12,15,18,21,24,27,30,33,36-dodecaoxanonatriacontan-39-amide] | < 0.1 µM | – | –
2 | CN1C[C@H](Cc2ccc(Cl)cc2)N(C2CCN(c3cc(Cl)ccn3)CC2)C[C@@H]1CN1CCOCC1 [compound 51, 4-(((2S,5S)-5-(4-chlorobenzyl)-4-(1-(4-chloropyridin-2-yl)piperidin-4-yl)-1-methyl-piperazin-2-yl)methyl)morpholine hydrochloride] | – | < 0.1 µM | < 0.1 µM
3 | CN1C[C@H](Cc2ccc(Cl)cc2)N(C2CCN(c3ccccn3)CC2)C[C@@H]1Cc1ccc(Cl)cc1 [compound 63, (2S,5S)-2,5-bis(4-chlorobenzyl)-1-methyl-4-(1-(pyridin-2-yl)piperidin-4-yl)piperazine 2,2,2-trifluoroacetate] | – | 0.1 to 1 µM | 1 to 10 µM
4 | CN1C[C@H](Cc2ccc(Cl)cc2)N(C2CCN(c3cc(Cl)ccn3)CC2)C[C@@H]1Cn1ccnc1 [compound 82, (2R,5S)-2-((1H-imidazol-1-yl)methyl)-5-(4-chlorobenzyl)-4-(1-(4-chloropyridin-2-yl)piperidin-4-yl)-1-methylpiperazine hydrochloride] | – | < 0.1 µM | < 0.1 µM
5 | CNC(=O)CN1C[C@H](Cc2ccc(Cl)cc2)N(C2CCN(c3ccccn3)CC2)C[C@@H]1CC(C)C [compound 95, 2-((2S,5S)-5-(4-chlorobenzyl)-2-isobutyl-4-(1-(pyridin-2-yl)piperidin-4-yl)piperazin-1-yl)-N-methylacetamide 2,2,2-trifluoroacetate] | – | < 0.1 µM | < 0.1 µM
6 | CNC(=O)CN1C[C@H](Cc2ccc(Cl)cc2)N(C2CCN(c3ccccn3)CC2)C[C@@H]1C(C)C [compound 106, 2-((2S,5S)-5-(4-chlorobenzyl)-2-isopropyl-4-(1-(pyridin-2-yl)piperidin-4-yl)piperazin-1-yl)-N-methylacetamide 2,2,2-trifluoroacetate] | – | < 0.1 µM | < 0.1 µM
7 | Cc1ccnc(N2CCC(N3C[C@H](C)OC[C@@H]3Cc3ccc(Cl)cc3)CC2)c1F [compound 112, (2S,5S)-5-(4-chlorobenzyl)-4-(1-(3-fluoro-4-methylpyridin-2-yl)piperidin-4-yl)-2-methylmorpholine 2,2,2-trifluoroacetate] | – | < 0.1 µM | 0.1 to 1 µM
8 | Cc1nsc(N2CCC(N3C[C@H](C)OC[C@@H]3Cc3ccc(Cl)cc3)CC2)n1 [compound 180, (2S,5S)-5-(4-chlorobenzyl)-2-methyl-4-(1-(3-methyl-1,2,4-thiadiazol-5-yl)piperidin-4-yl)morpholine 2,2,2-trifluoroacetate] | – | – | > 100 µM
9 | C[C@H]1CN(C2CCN(c3nncs3)CC2)[C@@H](Cc2ccc(Cl)cc2)CO1 [compound 181, (2S,5S)-4-(1-(1,3,4-thiadiazol-2-yl)piperidin-4-yl)-5-(4-chlorobenzyl)-2-methylmorpholine 2,2,2-trifluoroacetate] | – | – | > 100 µM
10 | Cc1nnc(N2CCC(N3C[C@H](C)OC[C@@H]3Cc3ccc(Cl)cc3)CC2)s1 [compound 182, (2S,5S)-5-(4-chlorobenzyl)-2-methyl-4-(1-(5-methyl-1,3,4-thiadiazol-2-yl)piperidin-4-yl)morpholine 2,2,2-trifluoroacetate] | – | – | > 100 µM
11 | Cc1nc(N2CCC(N3C[C@H](C)OC[C@@H]3Cc3ccc(Cl)cc3)CC2)sc1C [compound 183, (2S,5S)-5-(4-chlorobenzyl)-4-(1-(4,5-dimethylthiazol-2-yl)piperidin-4-yl)-2-methylmorpholine 2,2,2-trifluoroacetate] | – | < 0.1 µM | < 0.1 µM
12 | Cc1csc(N2CCC(N3C[C@H](C)OC[C@@H]3Cc3ccc(Cl)cc3)CC2)n1 [compound 184, (2S,5S)-5-(4-chlorobenzyl)-2-methyl-4-(1-(4-methylthiazol-2-yl)piperidin-4-yl)morpholine 2,2,2-trifluoroacetate] | – | – | 1 to 10 µM
13 | Cc1cnc(N2CCC(N3C[C@H](C)OC[C@@H]3Cc3ccc(Cl)cc3)CC2)s1 [compound 185, (2S,5S)-5-(4-chlorobenzyl)-2-methyl-4-(1-(5-methylthiazol-2-yl)piperidin-4-yl)morpholine 2,2,2-trifluoroacetate] | – | 0.1 to 1 µM | < 0.1 µM
14 | Cc1noc(N2CCC(N3C[C@H](C)OC[C@@H]3Cc3ccc(Cl)cc3)CC2)n1 [compound 188, (2S,5S)-5-(4-chlorobenzyl)-2-methyl-4-(1-(3-methyl-1,2,4-oxadiazol-5-yl)piperidin-4-yl)morpholine 2,2,2-trifluoroacetate] | – | – | > 100 µM
